Data: US5866548A, “Caged membrane-permeant inositol phosphates” (priority 1996, dated 1999)
“Also recorded” adds a separate entry of the source.

Tests used:
[1] = Membrane permeability; type: in vitro ADME
[2] = tested on: human embryonic kidney cells (HEK cells); experiment: [Ca2+]i response on flash photolysis of loaded cells; type: cell-based
Method: In human embryonic kidney cells (HEK cells), the extracellular IP3 -CPM was washed away after the cells had been loaded with 50 μM of IP3 -CPM for 20 minutes. […] Cells in the same dish which had not been exposed to UV light were kept in the dark for over 6 hours. […] However, pretreatment of IP3 -CPM with acetic acid will unmask the 3-hydroxyl and enable the intracellular phosphorylation of delivered IP3.

[3] = tested on: 1321N1 astrocytoma cells; experiment: [Ca2+]i response before and after UV uncaging, fluo-3; type: cell-based; details: with extracellular Ca2+
[4] = tested on: 1321N1 astrocytoma cells; experiment: as above; type: cell-based
Method: (b) Same experiment as (a) except done in Ca^2+ free medium (DPBS, O Ca^2+, 0.5 mM EGTA). UV exposure of the cells treated with IP3 -CPM still gave the same response, showing that the [Ca^2+ ]i increase resulted from the release of Ca^2+ from internal stores. […] The cells were loaded with fluo-3/AM. During the experiment the cells were bathed in HBS buffered with 20 mM Hepes at pH 7.4 and supplemented with 2 g/L glucose.
The [Ca^2+ ]i was monitored using the calcium indicator fluo-3 rather than fura-2 to keep the excitation wavelength of the indicator (490 nm) far from the uncaging wavelength (360 nm) of DMNB group. […] Compared to the photolyzing set-up (direct illumination by a hand mercury lamp) used for the IP3 -binding assay, the optical throughput from the source lamp to the specimen is much higher in a microscope, so 10 seconds (as opposed to 2 hours in IP3 binding assay) of photolysis was sufficient to produce enough IP3 to elicit [Ca^2+ ]i increase. The same amount of UV alone had no effect at all on [Ca^2+ ]i in cells not treated with IP3 -CPM. After recovering from uncaging of IP3 -CPM, the cells responded to subsequent carbachol and thapsigargin stimulation normally.
This confirmed that the [Ca^2+ ]i increase due to uncaging of IP3 -CPM resulted from internal Ca^2+ release, which was consistent with the normal mechanism of IP3 action.

[5] = tested on: P388D1 macrophage-like cells; experiment: as above; type: cell-based; details: for [Ca2+]i after UV (360 nm, 10 s): 20 μM
Method: The cells were loaded with fluo-3/AM. During the experiment the cells were bathed in HBS buffered with 20 mM Hepes at pH 7.4 and supplemented with 2 g/L glucose.
Another example was carried out in P388D1 macrophage-like cells.
Studies by Asmis et al. (92) have shown that, in P388D1 macrophage-like cells, PAF stimulated PGE2 production is mediated through two separate signals: IP3 induced [Ca^2+ ]i increase and another unidentified signal. IP3 -CPM might serve as a new tool for detailed study of PGE2 formation and AA release in relation to IP3 and [Ca^2+ ]i in these cells. One of the major advantages of using permeant IP3 derivatives is that experiments can be easily carried out in a population of cells, which is required for the measurement of AA release and PGE2 formation.

[6] = Chemical stability; type: physicochemical
[7] = tested on: cAMP-dependent protein kinase (PKA); type: cell-based
[8] = tested on: intestinal cell line T84; experiment: cells; type: cell-based; details: for EC50: 0.2 h, T84, ISC 12 min after addition, read-out: EC50 (chloride secretion)
Excerpt: A convenient test system is the intestinal cell line T84, in which chloride secretion can be continuously monitored by mounting confluent monolayers of cells in Ussing chambers (42).

[9] = tested on: angelfish melanophores; experiment: Pigment dispersion in fish dermal melanophores; type: cell-based, angelfish (Pterophyllum scalare); details: for reversibility of dispersion: removal of compound and epinephrine
Method: Melanophores permit a visual single-cell assay for the ability of cAMP analogs to enter cells and mimic cAMP actions. The melanophores were isolated on angelfish scales and the epidermis was stripped off. […] Dispersion was just detectable at 1 μM and half-maximal near 10 μM (FIG. 3A). […] The preceding examples are summarized in (64).

[10] = target: cAMP-dependent kinase type I (FICRhR) (Bos taurus, UniProt P00514); type: biochemical
Sequence of cAMP-dependent kinase type I (FICRhR) (P00514 whole entry): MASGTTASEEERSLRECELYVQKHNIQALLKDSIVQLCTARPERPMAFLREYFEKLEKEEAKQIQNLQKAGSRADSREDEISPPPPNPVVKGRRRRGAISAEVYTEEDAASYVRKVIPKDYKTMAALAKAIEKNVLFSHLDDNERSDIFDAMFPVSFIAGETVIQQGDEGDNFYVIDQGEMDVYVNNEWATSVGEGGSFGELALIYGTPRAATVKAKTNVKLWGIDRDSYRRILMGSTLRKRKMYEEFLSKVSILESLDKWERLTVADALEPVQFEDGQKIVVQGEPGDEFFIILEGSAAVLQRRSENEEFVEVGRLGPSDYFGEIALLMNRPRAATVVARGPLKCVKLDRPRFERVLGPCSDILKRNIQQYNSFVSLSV
Excerpt: When PKA is doubly labeled with fluorescein on its catalytic subunits and rhodamine on its regulatory subunits to produce FICRhR, fluorescence energy transfer from the fluorescein to rhodamine occurs in the holoenzyme complex but is disrupted upon activation and dissociation of the subunits. The change in the ratio of fluorescein to rhodamine emissions parallels the increase in kinase activity and can be nondestructively imaged in single cells. REF-52 fibroblasts were microinjected with FICRhR and emission ratio images recorded at room temperature as previously described (27).

[11] = 20 μM extracellular, about/over 5 min

CCC(=O)OCOP(=O)(OCOC(=O)CC)O[C@@H]1[C@@H](OCc2cc(OC)c(OC)cc2[N+](=O)[O-])[C@H](OP(=O)(OCOC(=O)CC)OCOC(=O)CC)[C@@H]2OC(OC)O[C@@H]2[C@H]1OP(=O)(OCOC(=O)CC)OCOC(=O)CC (stereo partly drawn) [IP3 -CPM, D-2,3-O-methoxymethylene-6-O-(4,5-dimethoxy-2-nitrobenzyl)-myo-Inositol 1,4,5-trisphosphate hexakis(propionyloxymethyl)ester]
membrane permeability (in words) [1]: crossed the cell membrane
[Ca2+]i on photolysis (1 ms flash) ([2]; loaded 50 μM, 20 min, washed): transient increase in [Ca^2+ ]i
persistence of [Ca2+]i response to repeated flashes ([2]; loaded 50 μM, 20 min, washed): persisted for up to a dozen repetitions
[Ca2+]i on photolysis after dark storage ([2]; over 6 hours in the dark after loading): [Ca^2+ ]i increases similar to those obtained immediately after being loaded; also recorded: full-scale [Ca^2+ ]i increases
[Ca2+]i after UV (360 nm, 10 s) ([3]; 20 μM): almost saturating [Ca^2+ ]i increase
[Ca2+]i time course after uncaging [3]: remained elevated above the resting level
[Ca2+]i before UV [4, 11]: no effect on [Ca^2+ ]i
[Ca2+]i after UV (360 nm, 10 s) ([4]; 20 μM, Ca2+ free medium (0.5 mM EGTA), listed as IP3 -CPM (V-1)): same response
extracellular concentration eliciting maximal Ca2+ release upon uncaging ([4]; 1321N1 astrocytoma cells): 10^-6 to 10^-5 M
[Ca2+]i time course after uncaging ([4]; Ca2+ free medium): soon went back to the resting level
[Ca2+]i time course after uncaging [5]: went back to the basal level in a short time
[Ca2+]i after UV (360 nm, 10 s) [5]: released a fair amount of Ca^2+ from internal stores
[Ca2+]i before UV [5, 11]: no effect on [Ca^2+ ]i
[Ca2+]i after UV (360 nm, 10 s) ([5]; listed as IP3 -CPM (V-1)): big [Ca^2+ ]i increase
chemical stability vs commercially available caged IP3 [6]: chemically more stable

CCCC(=O)Nc1ncnc2c1ncn2[C@@H]1O[C@@H]2COP(=O)(O)O[C@H]2[C@H]1OC(=O)CCC [Bt2 cAMP, N^6,O^2' -dibutyryl cAMP, reference compound]
delay and overall time course of PKA activation (in words) ([7]; REF-52, extracellular): Much the same delay and overall time course
membrane permeability (in words) [1]: poor permeability
EC50 [8]: 400 µM
pigment dispersion ([9]; 1 mM): unable to cause any detectable dispersion
potency relative to cAMP ([10]; in vitro binding to FICRhR): roughly 1/100

CCCC(=O)Nc1ncnc2c1ncn2[C@@H]1O[C@@H]2COP(=O)(OCOC(C)=O)O[C@H]2[C@H]1OC(=O)CCC (some centres unmarked) [Bt2 cAMP/AM, N^6,O^2' -Dibutyryl Adenosine 3',5'-cyclic Monophosphate Acetoxymethyl Ester]
onset of separation of regulatory and catalytic subunit of FICRhR after addition ([7]; REF-52, extracellular): roughly 2 min
plateau, % of the maximal change in fluorescence ratio ([7]; REF-52, extracellular 1 μM): over 50%
change in fluorescence ratio (PKA activation) ([7]; REF-52, extracellular 10 μM, within 15 min): maximal change in fluorescence ratio within 15 min
EC50 [8]: 2 µM
increase in potency by acetoxymethyl group vs Bt2 cAMP ([8]; T84): 200 fold
kinetics of activation of chloride secretion (in words) ([8]; T84, Bt2 cAMP/AM vs Bt2 cAMP): essentially indistinguishable kinetics of activation
increase in potency by AM ester group vs Bt2 cAMP [9]: more than 1000
pigment dispersion ([9]; 100 μM): essentially complete dispersal
reversibility of dispersion ([9]; 100 μM): easily reversed
reversibility of dispersion ([9]; 1 mM): could not be readily reversed
onset of dispersion ([9]; 1 mM, vs 100 μM): slightly faster onset of action
separation of the subunits of FICRhR (in words) ([10]; in vitro, 10 μM): no separation of the subunits
